Laboratory results reported in ChEMBL document CHEMBL1201862, “PubChem BioAssay data set” (2004).
Active and inactive are the calls of the source.

Key:
[1] = biological target: Dual specificity tyrosine-phosphorylation-regulated kinase 1A (Rattus norvegicus, UniProt Q63470); assay type: biochemical, Homo sapiens
[2] = biological target: Eukaryotic translation initiation factor 4E (Mus musculus, UniProt P63073); experiment: eIF4E–eIF4G protein interaction inhibitors, dose response, biochemical, TR-FRET (AID 855); assay type: functional;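 note: potency for disrupting eIF4E binding to eIF4GI seen as loss of FRET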
Sequence of Eukaryotic translation initiation factor 4E (P63073 whole entry): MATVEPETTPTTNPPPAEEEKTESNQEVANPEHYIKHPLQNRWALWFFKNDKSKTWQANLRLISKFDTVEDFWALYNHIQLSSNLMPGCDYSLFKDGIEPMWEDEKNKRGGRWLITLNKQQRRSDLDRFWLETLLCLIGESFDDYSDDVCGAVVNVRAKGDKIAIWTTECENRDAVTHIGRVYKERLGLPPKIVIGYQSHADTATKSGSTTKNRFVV

[3] = biological target: T1, Type-1 angiotensin II receptor (Homo sapiens, UniProt P30556); experiment: AT1 receptor antagonists, dose response, selectivity assay for APJ receptor antagonist project, cell-based, uHTS hits (AID 463214); assay type: functional;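 note: antagonist potency against angiotensin II stimulated AT1 response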
T1 sequence (P30556 whole entry): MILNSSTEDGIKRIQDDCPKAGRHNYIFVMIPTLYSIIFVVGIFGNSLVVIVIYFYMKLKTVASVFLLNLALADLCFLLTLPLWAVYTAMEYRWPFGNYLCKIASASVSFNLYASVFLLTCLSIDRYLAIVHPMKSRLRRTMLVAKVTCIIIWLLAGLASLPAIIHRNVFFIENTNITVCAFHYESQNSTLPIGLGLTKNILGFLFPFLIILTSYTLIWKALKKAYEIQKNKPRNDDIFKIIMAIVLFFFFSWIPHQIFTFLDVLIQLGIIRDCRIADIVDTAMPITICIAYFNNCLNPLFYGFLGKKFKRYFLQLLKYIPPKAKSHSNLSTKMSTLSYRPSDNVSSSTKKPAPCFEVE

[4] = biological target: Beta-galactosidase (Escherichia coli, UniProt Q8VNN2); experiment: PubChem AID 485352; assay type: functional
Sequence of Beta-galactosidase (Q8VNN2 whole entry): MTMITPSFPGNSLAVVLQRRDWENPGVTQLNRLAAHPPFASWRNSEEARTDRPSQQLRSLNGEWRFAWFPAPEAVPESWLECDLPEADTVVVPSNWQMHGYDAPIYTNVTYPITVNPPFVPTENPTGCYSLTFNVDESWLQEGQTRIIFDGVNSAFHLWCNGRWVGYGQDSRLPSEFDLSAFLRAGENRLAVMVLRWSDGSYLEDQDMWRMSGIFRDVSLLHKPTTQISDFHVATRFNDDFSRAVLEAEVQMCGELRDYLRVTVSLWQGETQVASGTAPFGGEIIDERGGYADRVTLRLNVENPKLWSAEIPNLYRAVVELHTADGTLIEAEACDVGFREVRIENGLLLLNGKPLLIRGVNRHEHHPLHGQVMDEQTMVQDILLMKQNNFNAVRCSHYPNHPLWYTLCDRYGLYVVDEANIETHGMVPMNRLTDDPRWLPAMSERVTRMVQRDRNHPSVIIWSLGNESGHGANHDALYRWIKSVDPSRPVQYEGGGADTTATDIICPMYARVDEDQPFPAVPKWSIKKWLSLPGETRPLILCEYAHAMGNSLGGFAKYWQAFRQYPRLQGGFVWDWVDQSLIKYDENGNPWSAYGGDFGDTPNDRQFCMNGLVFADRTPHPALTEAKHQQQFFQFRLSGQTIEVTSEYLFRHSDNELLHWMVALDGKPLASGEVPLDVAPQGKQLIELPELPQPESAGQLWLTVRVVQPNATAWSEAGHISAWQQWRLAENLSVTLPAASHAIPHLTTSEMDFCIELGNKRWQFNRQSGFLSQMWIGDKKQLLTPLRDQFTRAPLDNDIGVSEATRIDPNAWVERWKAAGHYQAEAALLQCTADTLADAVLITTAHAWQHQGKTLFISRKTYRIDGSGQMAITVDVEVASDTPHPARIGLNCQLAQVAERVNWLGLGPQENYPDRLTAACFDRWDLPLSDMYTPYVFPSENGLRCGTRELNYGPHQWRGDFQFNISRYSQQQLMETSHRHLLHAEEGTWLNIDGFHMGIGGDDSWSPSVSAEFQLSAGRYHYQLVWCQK

[5] = test system: H4; experiment: Luminescence Cell-Based Dose Response HTS to Identify Activators of 5'UTR Stem-Loop Driven Prion Protein mRNA Translation in H4 Neuroglioblastoma Cells. [Related pubchem assays: 1829 (Project Summary), 1814 (Primary HTS)]; assay type: functional; details: Homo sapiens
[6] = Luminescence Cell-Based Dose Response HTS to Identify Activators of Luciferase Translation or Activity in H4 […] Cells. [Related pubchem assays: 1829 (Project Summary), 1814 (Primary HTS)]; assay type: functional
[7] = biological target: Glucose-6-phosphate 1-dehydrogenase (Homo sapiens, UniProt P11413); experiment: human G6PD enzyme inhibitors, dose response, selectivity assay for P. falciparum G6PD inhibitor project, biochemical, fluorescence (AID 504792); assay type: functional
Sequence of Glucose-6-phosphate 1-dehydrogenase (P11413 whole entry): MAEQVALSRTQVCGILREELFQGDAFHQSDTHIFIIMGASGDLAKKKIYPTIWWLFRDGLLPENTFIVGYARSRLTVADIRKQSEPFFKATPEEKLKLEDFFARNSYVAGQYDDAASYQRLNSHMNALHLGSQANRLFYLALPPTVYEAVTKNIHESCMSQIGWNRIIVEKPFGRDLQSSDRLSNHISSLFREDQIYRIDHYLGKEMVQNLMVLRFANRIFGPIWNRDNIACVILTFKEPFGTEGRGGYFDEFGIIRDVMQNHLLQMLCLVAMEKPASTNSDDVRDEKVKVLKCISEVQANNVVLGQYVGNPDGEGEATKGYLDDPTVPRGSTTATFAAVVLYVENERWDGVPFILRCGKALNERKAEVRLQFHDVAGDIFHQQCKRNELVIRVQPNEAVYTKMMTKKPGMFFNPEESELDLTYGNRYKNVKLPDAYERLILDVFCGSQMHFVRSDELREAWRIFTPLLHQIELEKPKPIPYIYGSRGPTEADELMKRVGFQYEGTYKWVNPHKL

[8] = test system: Streptococcus; experiment: Group A Streptococcus viability loss, dose response, counter-screen for streptokinase expression inhibitor project, luminescence, BacTiterGlo (AID 1915); assay type: functional, organism-based;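 note: potency for reduction of bacterial viability or growth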
[9] = biological target: Prothrombin (Homo sapiens, UniProt P00734); experiment: Thrombin 1536 HTS Dose Response Confirmation. [Related pubchem assays: 1046 (Thrombin 1536 HTS; hits were confirmed in this assay)]; assay type: functional
[10] = test system: Streptococcus sp. 'group A'; experiment: growth inhibition of control SK(-) GAS strain, dose response, counter-screen for streptokinase expression inhibitor project, luminescence, kanamycin, BacTiterGlo, confirmation (AID 1900); assay type: functional, organism-based
[11] = biological target: T2, Streptokinase A (Streptococcus pyogenes serotype M1, UniProt P10520); experiment: S. pyogenes streptokinase expression inhibitors, potency, dose response, plasminogen activation absorbance, OD405 (AID 1914); assay type: functional, Streptococcus pyogenes M1 GAS;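 note: secreted streptokinase activity via plasminogen activation per viability signal from cell pellet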
T2 sequence (P10520 whole entry): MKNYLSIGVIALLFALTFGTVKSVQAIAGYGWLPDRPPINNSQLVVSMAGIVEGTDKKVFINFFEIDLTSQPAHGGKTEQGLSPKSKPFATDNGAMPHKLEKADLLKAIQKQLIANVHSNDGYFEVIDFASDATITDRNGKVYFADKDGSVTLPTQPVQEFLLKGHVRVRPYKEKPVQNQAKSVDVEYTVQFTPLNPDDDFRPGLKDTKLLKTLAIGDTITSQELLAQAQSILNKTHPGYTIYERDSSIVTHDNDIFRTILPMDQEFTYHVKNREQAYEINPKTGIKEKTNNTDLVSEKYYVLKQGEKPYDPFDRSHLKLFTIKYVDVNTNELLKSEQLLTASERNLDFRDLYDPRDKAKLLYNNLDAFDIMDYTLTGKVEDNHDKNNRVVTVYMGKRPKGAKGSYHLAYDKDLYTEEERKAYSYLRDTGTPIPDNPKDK

[12] = biological target: T3, Small ubiquitin-related modifier 1 (Homo sapiens, UniProt P63165); experiment: inhibitors of SUMO1 peptide binding, dose response, biochemical, fluorescence polarization, uHTS hits (AID 624382); assay type: functional; details: read-out: IC50_Mean
T3 sequence (P63165 whole entry): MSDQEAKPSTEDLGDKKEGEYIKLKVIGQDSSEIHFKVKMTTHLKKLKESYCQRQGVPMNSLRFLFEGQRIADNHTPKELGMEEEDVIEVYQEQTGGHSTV

[13] = biological target: T3, Small ubiquitin-related modifier 1; experiment: inhibitors of SUMO1 partner interactions, dose response, biochemical, FRET (AID 624383); assay type: functional; details: read-out: IC50_Mean
[14] = biological target: T4, Short transient receptor potential channel 4 (Mus musculus, UniProt Q9QUQ5); experiment: mouse TRPC4 channel activators, dose response, cell-based, HEK293 TRPC4/mu-opioid, Fluo-4 calcium (AID 434937); assay type: functional
T4 sequence (Q9QUQ5 whole entry): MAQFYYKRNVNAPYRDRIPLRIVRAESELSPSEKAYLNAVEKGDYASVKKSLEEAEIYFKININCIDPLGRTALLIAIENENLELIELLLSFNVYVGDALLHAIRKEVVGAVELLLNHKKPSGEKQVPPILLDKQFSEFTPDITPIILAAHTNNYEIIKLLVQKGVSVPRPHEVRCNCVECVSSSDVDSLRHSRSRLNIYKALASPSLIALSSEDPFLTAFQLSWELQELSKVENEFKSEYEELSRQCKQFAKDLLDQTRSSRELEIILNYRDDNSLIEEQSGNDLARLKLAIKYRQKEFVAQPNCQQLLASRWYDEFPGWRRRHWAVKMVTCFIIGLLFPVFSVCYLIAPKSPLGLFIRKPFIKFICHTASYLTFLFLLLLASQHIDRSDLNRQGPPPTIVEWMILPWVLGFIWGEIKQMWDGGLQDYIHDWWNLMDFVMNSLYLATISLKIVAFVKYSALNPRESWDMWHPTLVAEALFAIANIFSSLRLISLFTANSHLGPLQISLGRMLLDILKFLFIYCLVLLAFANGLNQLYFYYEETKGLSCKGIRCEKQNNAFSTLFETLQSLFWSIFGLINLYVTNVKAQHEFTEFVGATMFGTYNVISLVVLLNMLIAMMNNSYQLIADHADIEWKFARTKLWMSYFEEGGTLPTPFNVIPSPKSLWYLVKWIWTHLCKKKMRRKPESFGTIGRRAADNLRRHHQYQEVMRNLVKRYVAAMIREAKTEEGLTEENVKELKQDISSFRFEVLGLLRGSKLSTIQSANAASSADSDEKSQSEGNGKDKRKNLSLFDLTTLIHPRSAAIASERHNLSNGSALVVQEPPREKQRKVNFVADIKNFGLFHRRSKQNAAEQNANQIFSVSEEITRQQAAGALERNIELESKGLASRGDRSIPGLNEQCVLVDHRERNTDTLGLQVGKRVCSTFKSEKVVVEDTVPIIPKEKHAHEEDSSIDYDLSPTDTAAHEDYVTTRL

[15] = biological target: FAD-linked sulfhydryl oxidase ALR (Homo sapiens, UniProt P55789); experiment: inhibitors of human ALR sulfhydryl oxidase, dose response, biochemical, H2O2 detection, luminescence, cherry-pick (AID 493248)
Sequence of FAD-linked sulfhydryl oxidase ALR (P55789 whole entry): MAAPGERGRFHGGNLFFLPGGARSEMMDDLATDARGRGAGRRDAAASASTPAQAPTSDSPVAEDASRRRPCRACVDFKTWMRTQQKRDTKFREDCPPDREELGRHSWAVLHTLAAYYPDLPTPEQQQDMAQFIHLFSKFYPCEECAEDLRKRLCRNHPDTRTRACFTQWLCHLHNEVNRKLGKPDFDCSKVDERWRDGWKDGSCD

[16] = biological target: T5, Tyrosine-protein phosphatase non-receptor type 11 (Homo sapiens, UniProt Q06124); experiment: SHP2 phosphatase inhibition, dose response, selectivity assay for STEP inhibitor project, biochemical (AID 602367); assay type: functional; details: read-out: IC50_Mean
T5 sequence (Q06124 whole entry): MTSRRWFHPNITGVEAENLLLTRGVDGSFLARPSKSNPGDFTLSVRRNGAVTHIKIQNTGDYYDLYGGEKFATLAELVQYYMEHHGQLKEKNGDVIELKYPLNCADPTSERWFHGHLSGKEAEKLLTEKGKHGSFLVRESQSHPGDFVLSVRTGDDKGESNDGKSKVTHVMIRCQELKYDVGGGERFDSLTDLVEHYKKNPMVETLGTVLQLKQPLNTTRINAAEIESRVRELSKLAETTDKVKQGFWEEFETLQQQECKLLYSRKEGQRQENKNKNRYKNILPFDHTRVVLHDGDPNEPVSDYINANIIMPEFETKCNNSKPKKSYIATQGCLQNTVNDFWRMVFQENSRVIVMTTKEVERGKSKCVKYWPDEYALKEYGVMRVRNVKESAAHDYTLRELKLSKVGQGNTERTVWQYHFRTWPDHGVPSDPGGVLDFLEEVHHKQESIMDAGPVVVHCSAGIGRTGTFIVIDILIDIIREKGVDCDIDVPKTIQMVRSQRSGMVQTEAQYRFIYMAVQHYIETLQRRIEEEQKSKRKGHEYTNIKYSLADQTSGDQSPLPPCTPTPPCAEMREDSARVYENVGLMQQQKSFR

[17] = biological target: T6, Tyrosine-protein phosphatase non-receptor type 5 (Homo sapiens, UniProt P54829); experiment: STEP phosphatase inhibitors, confirmation, biochemical, fluorescence intensity, uHTS hits (AID 602372); assay type: functional; details: read-out: IC50_Mean
T6 sequence (P54829 whole entry): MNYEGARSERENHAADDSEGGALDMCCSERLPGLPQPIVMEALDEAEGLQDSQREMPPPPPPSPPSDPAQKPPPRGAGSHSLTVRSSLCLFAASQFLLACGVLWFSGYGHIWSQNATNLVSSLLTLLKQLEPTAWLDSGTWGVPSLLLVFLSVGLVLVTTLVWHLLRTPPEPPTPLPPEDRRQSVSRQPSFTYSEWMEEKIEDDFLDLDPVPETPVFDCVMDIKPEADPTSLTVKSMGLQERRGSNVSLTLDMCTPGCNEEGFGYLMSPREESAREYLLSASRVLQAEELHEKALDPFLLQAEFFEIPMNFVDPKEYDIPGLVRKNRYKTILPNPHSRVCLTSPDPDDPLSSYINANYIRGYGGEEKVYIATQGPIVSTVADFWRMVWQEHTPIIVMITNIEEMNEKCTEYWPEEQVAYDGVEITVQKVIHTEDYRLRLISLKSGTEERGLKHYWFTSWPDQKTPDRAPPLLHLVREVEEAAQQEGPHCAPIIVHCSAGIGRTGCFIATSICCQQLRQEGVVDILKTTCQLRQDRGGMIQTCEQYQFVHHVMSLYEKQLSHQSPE

[18] = biological target: Dual specificity protein phosphatase 3 (Homo sapiens, UniProt P51452); experiment: VHR phosphatase inhibition, dose response, selectivity assay for STEP inhibitor project, biochemical (AID 602374); assay type: functional; details: read-out: IC50_Mean
Sequence of Dual specificity protein phosphatase 3 (P51452 whole entry): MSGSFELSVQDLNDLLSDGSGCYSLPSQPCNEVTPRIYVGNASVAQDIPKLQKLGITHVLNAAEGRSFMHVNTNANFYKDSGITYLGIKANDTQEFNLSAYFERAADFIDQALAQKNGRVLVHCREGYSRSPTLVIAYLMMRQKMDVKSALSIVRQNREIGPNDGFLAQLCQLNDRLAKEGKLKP

[19] = biological target: Melanocortin receptor 4 (Homo sapiens, UniProt P32245); assay type: functional, cell-based;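 note: Cell-based assay with luminescence read-out, confirmatory dose-response testing for agonist activity of biased ligands at MC4R; human U2OS cells with tagged receptor and beta-arrestin; potency of agonists that increase receptor coupling to beta-arrestin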
Sequence of Melanocortin receptor 4 (P32245 whole entry): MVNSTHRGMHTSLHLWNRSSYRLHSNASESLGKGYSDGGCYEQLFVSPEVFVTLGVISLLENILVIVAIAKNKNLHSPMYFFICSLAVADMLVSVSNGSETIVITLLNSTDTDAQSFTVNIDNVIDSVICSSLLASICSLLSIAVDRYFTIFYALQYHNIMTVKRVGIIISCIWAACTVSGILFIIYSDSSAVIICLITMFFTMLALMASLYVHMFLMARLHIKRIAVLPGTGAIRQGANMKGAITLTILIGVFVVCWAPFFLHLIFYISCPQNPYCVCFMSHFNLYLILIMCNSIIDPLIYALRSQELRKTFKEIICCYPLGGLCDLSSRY

[20] = test system: H9c2; experiment: cells; assay type: functional, cell-based; details: Rattus norvegicus, H9c2, Myocardium;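 note: confirmatory concentration-response retest of ultra-high-throughput screening hits for modulation of myocardial damage; cell death induced by hydrogen peroxide oxidative stress; compound pretreatment for 60 min then peroxide exposure for 2 h; potency is for protecting the cells against peroxide damage rather than for killing them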

Structure (SMILES): COc1ccc2c(Cl)c(C(=O)NCc3ccco3)sc2c1
- AC50 [1]: 273 nM (active)

Structure (SMILES): O=C(Cc1ccccc1)OCn1nnc2ccccc2c1=O
- IC50 [2]: > 64 µM (inactive)

Structure (SMILES): CCc1ccc(C(=O)NNc2ccc(C)c(Cl)c2)cc1
- IC50 [3]: 2.55 µM (active)
- EC50 [4]: > 40 µM (inactive)

Structure (SMILES): COc1cccc(NC(=S)N/N=C2\CC3CCC2(C)C3(C)C)c1 (configuration not stated)
- IC50 [3]: 27.4 µM (not active)
- EC50 [4]: > 40 µM (inactive)

Structure (SMILES): O=C(Nc1nc2ccc([N+](=O)[O-])cc2s1)C1CCCO1 (configuration not stated)
- EC50 [5]: > 120 µM (not active)
- AC50 [1]: 577 nM (active)
- EC50 [6]: 224 nM (active)

Structure (SMILES): CCOC(=O)c1c(C2COc3ccccc3O2)csc1NC(=O)c1ccco1 (configuration not stated)
- IC50 [7]: > 80 µM (inactive)
- IC50 [3]: > 40 µM (not active)
- EC50 [4]: > 40 µM (inactive)

Structure (SMILES): O=C(Cn1cn[n+](CC(=O)c2ccc(Cl)cc2Cl)c1)c1ccc([N+](=O)[O-])cc1
- EC50 [8]: > 150 µM (not active)
- IC50 [9]: 1.7 µM (active)
- EC50 [10]: 11.3 µM (active)
- EC50 [11]: 21.4 µM (active)

Structure (SMILES): Cc1ccc(S(=O)(=O)N2[C@@H](c3ccc(C(C)(C)C)cc3)C(C(=O)O)=CC[C@H]2c2ccc(Cl)c(Cl)c2)cc1
- IC50 [12]: > 66.6 µM (inactive)
- IC50 [13]: 18.8 µM (active)

Structure (SMILES): COc1ccccc1CC(=O)N1CCN(CCc2ccccc2)CC1
- EC50 [14]: 4.22 µM (active)

Structure (SMILES): CN(C)/C=N/c1nc(-c2ccc3c(c2)OCO3)cs1
- AC50 [1]: 3640 nM (active)
- AC50 [15]: 10.9 µM (active)

Structure (SMILES): O=C(O)C1=CCC=CC1C(=O)O (configuration not stated)
- IC50 [12]: > 66.6 µM (inactive)
- IC50 [13]: 5.69 µM (active)

Structure (SMILES): COc1ccc(CSCCN)cc1Cl
- EC50 [14]: 5.96 µM (active)

Structure (SMILES): CCOC(=O)N1CCC(N(CCN(C)C)C(=S)Nc2cc(Cl)ccc2C)CC1
- IC50 [16]: 11.8 µM (active)
- IC50 [17]: 32.2 µM (inactive)
- IC50 [18]: 2.14 µM (active)

Structure (SMILES): CCCCN(CC)CCCNC(=O)Cn1nc(Cc2cccnc2)c2ccccc2c1=O
- EC50 [14]: 1.88 µM (active)

Structure (SMILES): CC(=O)Nc1cc(-c2ccc(S(C)(=O)=O)cc2)cn2c(-c3ccc(F)c(Cl)c3)cnc12
- EC50 [19]: > 89.2 µM (inactive)

Structure (SMILES): CCc1ccc(C2CC(c3ccc(F)cc3)Nc3nc(N)nn32)cc1 (configuration not stated)
- EC50 [19]: 48.1 µM (inactive)

Structure (SMILES): COc1ccc(C2NCCc3[nH]cnc32)cc1 (configuration not stated)
- EC50 [14]: 3.35 µM (active)

Structure (SMILES): Cc1ccc(Cl)cc1N1CCN(CCN)CC1
- EC50 [14]: 0.211 µM (active)

Structure (SMILES): Cc1c(-n2cccc2C=O)cccc1[N+](=O)[O-]
- IC50 [2]: 50 µM (inactive)

Structure (SMILES): CC(=O)Nc1cc(-c2ccccc2)cn2c(-c3cccc(C(C)=O)c3)cnc12
- IC50 [20]: > 79 µM (inactive)
- EC50 [19]: > 89.2 µM (inactive)

Structure (SMILES): O=C(Cc1ccc(Cl)cc1)OCc1nnc(-c2ccccc2)o1
- IC50 [2]: 50 µM (inactive)

Structure (SMILES): CC(=O)Nc1ccc(S(=O)(=O)NCCSc2ccccn2)cc1
- IC50 [2]: > 64 µM (inactive)
